Results as given in US20260242391A1 (priority 2023, published 2026).

Key:
HL-60 = HL-60 differentiation potency; format: cell-based; settings: Homo sapiens
in vitro = settings: human

C[C@H]1[C@@H](Oc2ccc(OC3CCC(C(=O)O)C3)cc2)O[C@@H]2O[C@@]3(C)CC[C@H]4[C@H](C)CC[C@@H]1[C@@]24OO3 (stereo partly drawn) [Compound 227, 3-(4-(((3R,5aS,6R,8aS, 9R,10S,12R, 12aR)-3,6,9-trimethyldeca-hydro-12H-3,12-epoxy[1,2]dioxepino[4,3-i]isochromen-10-yl)oxy)phenoxy) cyclopentane-1-carboxylic acid]
EC50 (HL-60): 32.9 nM
IC50 (in vitro): 700 nM

C[C@H]1[C@@H](O[C@H]2CC[C@@H](C(=O)N[C@H]3C[C@@H](C(=O)O)C3)CC2)O[C@@H]2O[C@@]3(C)CC[C@H]4[C@H](C)CC[C@@H]1[C@@]24OO3 [Compound 228, (1S,3s)-3-((1R,4S)-4-(((3R,5aS,6R,8aS, 9R,10S,12R, 12aR)-3,6,9-trimethyldeca-hydro-12H-3,12-epoxy[1,2]dioxepino[4,3-i]isochromen-10-yl)oxy)cyclo-hexane-1-carboxamido) cyclobutane-1-carboxylic acid]
EC50 (HL-60): 9200 nM
IC50 (in vitro): > 20000 nM

C[C@H]1[C@@H](O[C@H]2CC[C@@H](C(=O)N[C@H](C(=O)O)C(C)(C)C)CC2)O[C@@H]2O[C@@]3(C)CC[C@H]4[C@H](C)CC[C@@H]1[C@@]24OO3 [Compound 229, (S)-3,3-dimethyl-2-((1R,4R)-4-(((3R,5aS,6R,8aS, 9R,10S,12R, 12aR)-3,6,9-trimethyldeca-hydro-12H-3,12-epoxy[1,2]dioxepino[4,3-i]isochromen-10-yl)oxy)cyclohexane-1-carboxamido) butanoic acid]
EC50 (HL-60): 204 nM
IC50 (in vitro): > 20000 nM

C[C@H]1[C@@H](Oc2ccccc2OCC(=O)O)O[C@@H]2O[C@@]3(C)CC[C@H]4[C@H](C)CC[C@@H]1[C@@]24OO3 [Compound 230, 2-(2-(((3R,5aS,6R,8aS, 9R,10S,12R, 12aR)-3,6,9-trimethyldeca-hydro-12H-3,12-epoxy[1,2]dioxepino[4,3-i]isochromen-10-yl)oxy)phenoxy) acetic acid]
EC50 (HL-60): 2870 nM
IC50 (in vitro): > 20000 nM

C[C@H]1[C@@H](Oc2ccc(C(=O)N[C@H](C(=O)O)C3CCCCC3)cc2)O[C@@H]2O[C@@]3(C)CC[C@H]4[C@H](C)CC[C@@H]1[C@@]24OO3 [Compound 231, (S)-2-cyclohexyl-2-(4-(((3R,5aS,6R,8aS, 9R,10S,12R, 12aR)-3,6,9-trimethyldeca-hydro-12H-3,12-epoxy[1,2]dioxepino[4,3-i]isochromen-10-yl)oxy)benzamido)acetic acid]
EC50 (HL-60): 17 nM
IC50 (in vitro): 80 nM

C[C@H]1[C@@H](Oc2ccc(C(=O)N[C@H]3CC[C@@H](C(=O)O)C3)cc2Cl)O[C@@H]2O[C@@]3(C)CC[C@H]4[C@H](C)CC[C@@H]1[C@@]24OO3 [Compound 232, (1R,3S)-3-(3-chloro-4-(((3R,5aS,6R,8aS, 9R,10S,12R, 12aR)-3,6,9-trimethyldeca-hydro-12H-3,12-epoxy[1,2]dioxepino[4,3-i]isochromen-10-yl)oxy)benzamido)cyclo-pentane-1-carboxylic acid]
EC50 (HL-60): 29.9 nM
IC50 (in vitro): 620 nM

C[C@H]1[C@@H](Oc2ccc(C(=O)N[C@H](C(=O)O)c3ccccc3)cc2)O[C@@H]2O[C@@]3(C)CC[C@H]4[C@H](C)CC[C@@H]1[C@@]24OO3 [Compound 234, (S)-2-phenyl-2-(4-(((3R,5aS,6R,8aS, 9R,10S,12R, 12aR)-3,6,9-trimethyldeca-hydro-12H-3,12-epoxy[1,2]dioxepino[4,3-i]isochromen-10-yl)oxy)benzamido) acetic acid]
EC50 (HL-60): 112 nM
IC50 (in vitro): 1270 nM

C[C@H]1[C@@H](Oc2ccc(C(=O)O)cc2Cl)O[C@@H]2O[C@@]3(C)CC[C@H]4[C@H](C)CC[C@@H]1[C@@]24OO3 [Compound 235, 3-chloro-4-(((3R,5aS,6R,8aS, 9R,10S,12R, 12aR)-3,6,9-trimethyldeca-hydro-12H-3,12-epoxy[1,2]dioxepino[4,3-i]isochromen-10-yl)oxy)benzoic acid]
EC50 (HL-60): 37.5 nM
IC50 (in vitro): 15000 nM

CC(C)[C@H](NC(=O)c1ccc(O[C@H]2O[C@@H]3O[C@@]4(C)CC[C@H]5[C@H](C)CC[C@@H]([C@H]2C)[C@@]35OO4)cc1)C(=O)O [Compound 236, (4-(((3R,5aS,6R,8aS, 9R,10S,12R, 12aR)-3,6,9-trimethyldeca-hydro-12H-3,12-epoxy[1,2]dioxepino[4,3-i]isochromen-10-yl)oxy)benzoyl)-L-valine]
EC50 (HL-60): 47.4 nM
IC50 (in vitro): 9100 nM

C[C@H]1[C@@H](O[C@H]2CC[C@@H](C(=O)N[C@@H](CC(F)(F)F)C(=O)O)CC2)O[C@@H]2O[C@@]3(C)CC[C@H]4[C@H](C)CC[C@@H]1[C@@]24OO3 [Compound 237, (S)-4,4,4-trifluoro-2-((1R,4R)-4-(((3R,5aS,6R,8aS, 9R,10S,12R, 12aR)-3,6,9-trimethyldeca-hydro-12H-3,12-epoxy[1,2]dioxepino[4,3-i]isochromen-10-yl)oxy)cyclo-hexane-1-carboxamido) butanoic acid]
EC50 (HL-60): 7260 nM
IC50 (in vitro; HL-60 cells): > 20000 nM

C[C@H]1[C@@H](Oc2c(F)cc(OCC(=O)O)cc2F)O[C@@H]2O[C@@]3(C)CC[C@H]4[C@H](C)CC[C@@H]1[C@@]24OO3 [Compound 238, 2-(3,5-difluoro-4-(((3R,5aS,6R,8aS, 9R,10S,12R, 12aR)-3,6,9-trimethyldeca-hydro-12H-3,12-epoxy[1,2]dioxepino[4,3-i]isochromen-10-yl)oxy)phenoxy) acetic acid]
EC50 (HL-60): 71.3 nM
IC50 (in vitro): 6910 nM

C[C@H]1[C@@H](Oc2ccc(CC(=O)N[C@H]3CC[C@@H](C(=O)O)C3)cc2)O[C@@H]2O[C@@]3(C)CC[C@H]4[C@H](C)CC[C@@H]1[C@@]24OO3 [Compound 239, (1R,3S)-3-(2-(4-(((3R,5aS,6R,8aS, 9R,10S,12R, 12aR)-3,6,9-trimethyldeca-hydro-12H-3,12-epoxy[1,2]dioxepino[4,3-i]isochromen-10-yl)oxy)phenyl)acetamido)cyclo-pentane-1-carboxylic acid]
EC50 (HL-60): 21.9 nM
IC50 (in vitro): 16200 nM

C[C@H]1[C@@H](OC[C@H]2CC[C@@H](C(=O)N[C@H]3C[C@@H](C(=O)O)C3)CC2)O[C@@H]2O[C@@]3(C)CC[C@H]4[C@H](C)CC[C@@H]1[C@@]24OO3 [Compound 241, (1S,3s)-3-((1R,4S)-4-((((3R,5aS,6R,8aS, 9R,10S,12R, 12aR)-3,6,9-trimethyldeca-hydro-12H-3,12-epoxy[1,2]dioxepino[4,3-i]isochromen-10-yl)oxy)methyl)cyclohexane-1-carboxamido) cyclobutane-1-carboxylic acid]
EC50 (HL-60): 214 nM
IC50 (in vitro): 18800 nM

C[C@H]1[C@@H](OC[C@H]2CC[C@@H](C(=O)N[C@H](C(=O)O)C(C)(C)C)CC2)O[C@@H]2O[C@@]3(C)CC[C@H]4[C@H](C)CC[C@@H]1[C@@]24OO3 [Compound 242, (S)-3,3-dimethyl-2-((1R,4R)-4-((((3R,5aS,6R,8aS, 9R,10S,12R, 12aR)-3,6,9-trimethyldeca-hydro-12H-3,12-epoxy[1,2]dioxepino[4,3-i]isochromen-10-yl)oxy)methyl)cyclohexane-1-carboxamido) butanoic acid]
EC50 (HL-60): 21.3 nM
IC50 (in vitro): 1270 nM

C[C@H]1[C@@H](Oc2ccc(O[C@H]3CC[C@@H](C(=O)O)CC3)cc2)O[C@@H]2O[C@@]3(C)CC[C@H]4[C@H](C)CC[C@@H]1[C@@]24OO3 [Compound 243, (1R,4s)-4-(4-(((3R,5aS,6R,8aS, 9R,10S,12R, 12aR)-3,6,9-trimethyldeca-hydro-12H-3,12-epoxy[1,2]dioxepino[4,3-i]isochromen-10-yl)oxy)phenoxy) cyclohexane-1-carboxylic acid]
EC50 (HL-60): 74.2 nM
IC50 (in vitro): 720 nM

C[C@H]1[C@@H](Oc2ccc(C(=O)N3CC(C(=O)O)C3)cc2Cl)O[C@@H]2O[C@@]3(C)CC[C@H]4[C@H](C)CC[C@@H]1[C@@]24OO3 [Compound 244, 1-(3-chloro-4-(((3R,5aS,6R,8aS, 9R,10S,12R, 12aR)-3,6,9-trimethyldeca-hydro-12H-3,12-epoxy[1,2]dioxepino[4,3-i]isochromen-10-yl)oxy)benzoyl) azetidine-3-carboxylic acid]
EC50 (HL-60): 101 nM
IC50 (in vitro): 2460 nM

C[C@H]1[C@@H](Oc2ccc(Cn3cc(C(=O)O)nn3)cc2)O[C@@H]2O[C@@]3(C)CC[C@H]4[C@H](C)CC[C@@H]1[C@@]24OO3 [Compound 245, 1-(4-(((3R,5aS,6R,8aS, 9R,10S,12R, 12aR)-3,6,9-trimethyldeca-hydro-12H-3,12-epoxy[1,2]dioxepino[4,3-i]isochromen-10-yl)oxy)benzyl)-1H-1,2,3-triazole-4-carboxylic acid]
EC50 (HL-60): 1340 nM
IC50 (in vitro): > 20000 nM

C[C@H]1[C@@H](Oc2ccc(C(=O)Nc3ccc(C(=O)O)cc3)cc2)O[C@@H]2O[C@@]3(C)CC[C@H]4[C@H](C)CC[C@@H]1[C@@]24OO3 [Compound 246, 4-(4-(((3R,5aS,6R,8aS, 9R,10S,12R, 12aR)-3,6,9-trimethyldeca-hydro-12H-3,12-epoxy[1,2]dioxepino[4,3-i]isochromen-10-yl)oxy)benzamido) benzoic acid]
EC50 (HL-60): 15.8 nM
IC50 (in vitro): 40 nM

C[C@H]1[C@@H](Oc2ccc(C(=O)N3CC[C@@H](C(=O)O)C3)cc2Cl)O[C@@H]2O[C@@]3(C)CC[C@H]4[C@H](C)CC[C@@H]1[C@@]24OO3 [Compound 247, (R)-1-(3-chloro-4-(((3R,5aS,6R,8aS, 9R,10S,12R, 12aR)-3,6,9-trimethyldeca-hydro-12H-3,12-epoxy[1,2]dioxepino[4,3-i]isochromen-10-yl)oxy)benzoyl) pyrrolidine-3-carboxylic acid]
EC50 (HL-60): 56.1 nM
IC50 (in vitro): 1420 nM

CO[C@H](C)[C@H](NC(=O)c1ccc(O[C@H]2O[C@@H]3O[C@@]4(C)CC[C@H]5[C@H](C)CC[C@@H]([C@H]2C)[C@@]35OO4)cc1)C(=O)O [Compound 248, O-methyl-N-(4-(((3R,5aS,6R,8aS, 9R,10S,12R, 12aR)-3,6,9-trimethyldeca-hydro-12H-3,12-epoxy[1,2]dioxepino[4,3-i]isochromen-10-yl)oxy)benzoyl)-L-threonine]
EC50 (HL-60): 412 nM
IC50 (in vitro): > 20000 nM

C[C@H]1[C@@H](O[C@H]2CC[C@@H](C(=O)N[C@H](C(=O)O)C(C)(C)O)CC2)O[C@@H]2O[C@@]3(C)CC[C@H]4[C@H](C)CC[C@@H]1[C@@]24OO3 [Compound 249, (S)-3-hydroxy-3-methyl-2-((1R,4R)-4-(((3R,5aS,6R,8aS, 9R,10S,12R, 12aR)-3,6,9-trimethyldeca-hydro-12H-3,12-epoxy[1,2]dioxepino[4,3-i]isochromen-10-yl)oxy)cyclo-hexane-1-carboxamido) butanoic acid]
EC50 (HL-60): 20000 nM
IC50 (in vitro): > 20000 nM
